Drawing on PubChem BioAssay (NCI), this text covers TGI for nine molecules.

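Grown in 96-well plates, cells were treated for 48 hours with each compound at five concentrations. Insufficient inhibition: endpoint recorded as highest concentration tested. Definition used: TGI = concentration required for complete inhibition of growth.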

Among the test systems are MDA-MB-435; PC-3 prostate; SNB-19 CNS; SN12C renal; A498 renal; SK-OV-3 ovarian; A549 NSCLC; SK-MEL-28 melanoma; MCF7 breast; MDA-N; NCI-H522 lung; SW-620 colon; HL-60(TB) leukemia; ACHN renal; BT-549 breast; SF-295 CNS; SR leukemia.
Experiment in all cases: NCI-60 cell line screen, 48 h

As to `CCOC(=O)C1=NOC2(C=C(Br)C(=O)C(Br)=C2)C1`, the TGI was found to be 3.49 µM in the assay with MDA-MB-435; 5.31 µM in the assay on PC-3 prostate; 40 µM in the assay on SNB-19 CNS; 19.6 µM with SN12C renal; 38 µM in the assay on A498 renal; 21.1 µM with SK-OV-3 ovarian. Besides, the TGI worked out at 59 µM in the assay with A549 NSCLC; 24.7 µM in the assay with SK-MEL-28 melanoma; 11.1 µM in the assay with MCF7 breast; 3.39 µM in the assay on MDA-N; 1.34 µM in the assay with NCI-H522 lung; 2.77 µM in the assay with SW-620 colon. Moreover, the TGI was 1.1 µM in the assay on HL-60(TB) leukemia, 2.25 µM in the assay with ACHN renal, 17.8 µM in the assay with BT-549 breast and 32.4 µM in the assay on SF-295 CNS.

As to `O=c1[nH]cc(-c2c[nH]c3ccccc23)nc1-c1c[nH]c2ccccc12`, the TGI was determined as 14 µM with MDA-MB-435; 51.1 µM in the assay with PC-3 prostate; 34.6 µM with SNB-19 CNS; 33.4 µM with SN12C renal; 27.9 µM in the assay on A498 renal; 26.2 µM in the assay on SK-OV-3 ovarian. For the same molecule, the TGI is more than 100 µM in the assay with A549 NSCLC; 31.7 µM in the assay on SK-MEL-28 melanoma; 54.7 µM in the assay on MCF7 breast; 9.44 µM in the assay with MDA-N; 20.3 µM with NCI-H522 lung; 18.1 µM in the assay with SW-620 colon. Also, the TGI turned out to be 25 µM with ACHN renal, 28.7 µM with BT-549 breast and 19 µM with SF-295 CNS.

As to `CCN1C(=O)c2cc(OC)c(OC)cc2C(=O)C12OC(=O)c1cc3c(cc12)OCO3` (stereo not drawn), the TGI with MDA-MB-435, in the assay with PC-3 prostate, with SNB-19 CNS, in the assay with SN12C renal, in the assay on A498 renal and in the assay with A549 NSCLC was more than 100 µM each time. Besides, the TGI in the assay with SK-MEL-28 melanoma, with SR leukemia, in the assay on MCF7 breast, in the assay on MDA-N, in the assay with NCI-H522 lung and in the assay with SW-620 colon was more than 100 µM in each case. In addition, the TGI with ACHN renal, with BT-549 breast and with SF-295 CNS was more than 100 µM in each case.

Regarding `CCC(CCCN)Nc1cc(OC)cc2c(C)ccnc12` (stereo not drawn), the TGI was found to be 28 µM with MDA-MB-435; 26.2 µM in the assay with PC-3 prostate; 27.9 µM in the assay on SNB-19 CNS; 53.5 µM in the assay with SN12C renal; 34 µM in the assay on A498 renal; 26.4 µM in the assay on SK-OV-3 ovarian. The TGI in the assay with A549 NSCLC was 29.2 µM; with SK-MEL-28 melanoma, 30.6 µM; in the assay with SR leukemia, 31.6 µM; in the assay on MCF7 breast, 29.3 µM; with MDA-N, 34.1 µM; with SW-620 colon it was 36.9 µM. In addition, the TGI is 27.7 µM in the assay on HL-60(TB) leukemia, 32.6 µM in the assay with ACHN renal, 28.5 µM with BT-549 breast and 32.9 µM in the assay with SF-295 CNS.

Turning to `COc1cc2c(c(OC)c1)/C(=C/Sc1ccccc1)C(=O)N(C(C)(C)C)C2`, the TGI was 55.2 µM in the assay with MDA-MB-435; more than 100 µM in the assay on PC-3 prostate; 69 µM in the assay on SN12C renal; 78.1 µM in the assay on A498 renal; 76.9 µM with SK-OV-3 ovarian; more than 100 µM with SK-MEL-28 melanoma. In addition, the TGI is 66.7 µM in the assay with SR leukemia; 96.3 µM in the assay on MCF7 breast; 73 µM with MDA-N; more than 100 µM in the assay with SW-620 colon; 59.9 µM in the assay on HL-60(TB) leukemia; more than 100 µM with ACHN renal. The TGI stood at 83 µM with BT-549 breast and 75.5 µM in the assay with SF-295 CNS.

Turning to `CC1(/C=C/CCSc2ccccc2)CC(=O)C2CC1C2(C)C` (stereo not drawn), the TGI was more than 87.6 µM in the assay on MDA-MB-435; more than 100 µM in the assay on PC-3 prostate; more than 100 µM in the assay with SNB-19 CNS; 45.6 µM in the assay with SN12C renal; more than 88.3 µM with A498 renal; more than 100 µM in the assay with SK-OV-3 ovarian. The TGI in the assay with A549 NSCLC is more than 100 µM; with SK-MEL-28 melanoma, more than 100 µM; in the assay with SR leukemia, 16.9 µM; in the assay on MCF7 breast, more than 100 µM; in the assay with MDA-N, more than 100 µM; in the assay on NCI-H522 lung, 52.3 µM. Moreover, the TGI with SW-620 colon was more than 100 µM; with ACHN renal, 77.8 µM; in the assay on BT-549 breast, 42.1 µM; in the assay on SF-295 CNS it was more than 100 µM.

For the molecule `CC(C)(C)OC(=O)N/N=C(/N)Cc1ccc(Cl)cc1`, the TGI in the assay with MDA-MB-435, in the assay with PC-3 prostate, with SNB-19 CNS, in the assay on SN12C renal, in the assay with A498 renal and with SK-OV-3 ovarian was more than 100 µM in each case. The TGI in the assay on A549 NSCLC, with SK-MEL-28 melanoma, in the assay on SR leukemia, in the assay with MCF7 breast, with MDA-N and in the assay with NCI-H522 lung was more than 100 µM throughout. Also, the TGI in the assay with SW-620 colon, with ACHN renal, in the assay on BT-549 breast and in the assay on SF-295 CNS was more than 100 µM each time.

As to `CS(=O)(=O)OCC1CN(S(C)(=O)=O)c2cc(O)ccc21` (stereo not drawn), the TGI with MDA-MB-435 was 4.07 µM; with PC-3 prostate, 5.62 µM; with SN12C renal it was 13.5 µM; with A498 renal it was 7.81 µM; in the assay with A549 NSCLC, 21.1 µM; in the assay on SK-MEL-28 melanoma it was 11.6 µM. For the same molecule, the TGI in the assay with SR leukemia is more than 100 µM; in the assay with MCF7 breast, 26.2 µM; with MDA-N, 4.52 µM; with NCI-H522 lung it was 2.94 µM; with SW-620 colon, 28.3 µM; in the assay on HL-60(TB) leukemia it was 6.59 µM. Besides, the results for the TGI with ACHN renal, with BT-549 breast and in the assay on SF-295 CNS were 15.1 µM, 8.85 µM and 14.6 µM, respectively.

Regarding `Cn1c(=O)c2c(nc3n2CC(=O)N3CCCCl)n(C)c1=O`, the TGI with MDA-MB-435, with PC-3 prostate, with SNB-19 CNS, in the assay with SN12C renal, in the assay on A498 renal and with SK-OV-3 ovarian was more than 100 µM each time. The TGI with A549 NSCLC, in the assay on SK-MEL-28 melanoma, in the assay on MCF7 breast, with MDA-N, with SW-620 colon and with HL-60(TB) leukemia was more than 100 µM in each case. For the same molecule, the TGI in the assay with ACHN renal, in the assay on BT-549 breast and in the assay on SF-295 CNS was more than 100 µM each time.
